Data on four molecules can be found in patent US20240336613A1, “HETEROARYL COMPOUNDS FOR TREATING HUNTINGTON'S DISEASE” (PTC THERAPEUTICS, INC., priority 2021, published 2024).

pIC50: −log10 of the molar value. Like-named read-outs stand apart in the source and are kept apart here.

This test concerns Huntingtin protein (HTT). In words: Endogenous Huntingtin Protein Assay (MSD electrochemiluminescence). In kind it is cell-based. To be noted: for pIC50: read-out: IC50. How it is done: Compounds of Formula (I) were tested using the Meso Scale Discovery (MSD) Assay provided in International Application No. PCT/US2016/066042, filed on Dec. 11, 2016 and claiming priority to United States Provisional Application U.S. 62/265,652 filed on Dec. 10, 2015, the entire contents of which are incorporated herein by reference.
The Endogenous Huntingtin Protein assay used in Example 1 was developed using the ELISA-based MSD electrochemiluminescence assay platform.
Meso Scale Discovery (MSD) 96-well or 384-well plates were coated overnight at 4° C. with MW1 (expanded polyglutamine) or MAB2166 monoclonal antibody (for capture) at a concentration of 1 μg/mL in PBS (30 μL per well). Plates were then washed three times with 300 μL wash buffer (0.05% Tween-20 in PBS) and blocked (100 μL blocking buffer; 5% BSA in PBS) for 4-5 hours at room temperature with rotational shaking and then washed three times with wash buffer.
Samples (25 μL) were transferred to the antibody-coated MSD plate and incubated overnight at 4° C. After removal of the lysates, the plate was washed three times with wash buffer, and 25 μL of #5656S (Cell signaling; rabbit monoclonal) secondary antibody (diluted to 0.25 μg/mL in 0.05% Tween-20 in blocking buffer) was added to each well and incubated with shaking for 1 Hour at room temperature. Following incubation with the secondary antibody, the wells were rinsed with wash buffer after which 25 μL of goat anti-rabbit SULFO TAG secondary detection antibody (required aspect of the MSD system) (diluted to 0.25 μg/mL in 0.05% Tween-20 in blocking buffer) was added to each well and incubated with shaking for 1 hour at room temperature. After rinsing three times with wash buffer, 150 μL of read buffer T with surfactant (MSD) were added to each empty well, and the plate was imaged on a SI 6000 imager (MSD) according to manufacturers' instructions provided for 96- or 384-well plates.

Where [1] appears, read: Table 2, comparison compounds tested according to the assay of Example 1.
[2] abbreviates: Table 1, Endogenous Huntingtin Protein Assay.

One may read the pIC50 as −log10 of the IC50, conventionally taken in molar units. `CC1(C)CC(n2ccc3cc(-c4ccc(-c5cn[nH]c5)cc4O)nnc32)CC(C)(C)N1` [Cpd 26 in WO2020/005873, reference compound]: under setting [1], the negative logarithm of the IC50 (pIC50) is 8.15. For the molecule `CC1(C)C[C@H](n2ccc3cc(-c4cc(F)c(-n5ccnn5)cc4O)nnc32)[C@H](F)C(C)(C)N1` [Cpd 26, 4-fluoro-2-{7-[(3S,4S)-3-fluoro-2,2,6,6-tetramethylpiperidin-4-yl]-7H-pyrrolo[2,3-c]pyridazin-3-yl}-5-(1H-1,2,3-triazol-1-yl)pheno], under setting [2], the pIC50 was over 7.00. Still for that read-out and setting: next, `CC1(C)C[C@H](n2ccc3cc(-c4c(O)cc(-n5ccnn5)cc4F)nnc32)[C@H](F)C(C)(C)N1` [Cpd 27, 3-fluoro-2-{7-[(3S,4S)-3-fluoro-2,2,6,6-tetramethylpiperidin-4-yl]-7H-pyrrolo[2,3-c]pyridazin-3-yl}-5-(1H-1,2,3-triazol-1-yl)phenol]: over 7.00. For `CC1(C)CC(n2nnc3cc(-c4ccc(-n5ccnn5)cc4O)nnc32)CC(C)(C)N1` [Cpd 72 in WO2020/005873, reference compound], where the note is “Cpd 72 compared with Cpd 7 in WO2020/005873”, the “potency comparison, 1H-pyrazole moiety replaced with 1H-1,2,3-triazole moiety” value was “significant loss in potency”. For the same molecule, the pIC50 under setting [1] is 6.75.
